Results on one compound are retold here after patent US11737462B2, “Methods for modulating plant response to environmentally-induced stress” (Howard University, priority 2012, dated 2023).

For experiment [1], the target named is RACK1A (Arabidopsis thaliana, UniProt O24456). The experiment in a line: in-vitro assay of tyrosine phosphorylation (Y248) based homodimerization of RACK1A. The format is biochemical. An excerpt:
A crystal structure of Arabidopsis thaliana RACK1 protein has been reported. Deducing the crystal structure of the Arabidopsis RACK1A protein highlighted the potential functional residues of the protein. Noteworthy in the structure was the functionally conserved tyrosine phosphorylation residue (Y248) that has been implicated in RACK1A function. Therefore, it was undertaken to identify a chemical inhibitor of Y248 phosphorylation that would serve as a potential “anti-stress” compound in countering environmental stresses in plants. In order to identify small compounds occupying the Y248 pocket, docking simulations with a subset of 30,000 compounds were performed. Based on ranking with an energy cut-off of 25 kcal/mol, 3,011 compounds were then selected. Upon further re-ranking, 46 lead compounds were identified and 11 compounds were screened for their efficacy in an in-vitro assay. […] Those six compounds include SD-29, SD-29-9, SD-29-11, SD-29-22, SD-34, and SD-125.

Experiment [2] has as its system Arabidopsis plants. The experiment in a line: salt stress (150 mM salt) in Arabidopsis plants. The settings on record: 100 μM compound plus 150 mM salt, two weeks, 22° C., vs DMSO plus salt. The format is in vivo, Arabidopsis thaliana. How it is done:
In the examples described herein, the test compounds (e.g., SD-29 or analogs thereof) were dissolved in dimethyl sulfoxide (DMSO) to provide a 20 mM concentration. Micromolar concentrations were then prepared as needed by addition to the water incubation media. Unless stated otherwise, the experimental plants were incubated with the roots immersed in the water containing the compound. The control plants received only DMSO in the same amount as that of the compound. In the first experiment, Arabidopsis plants were treated with 150 mM salt for two weeks. One plant in each group was treated with 100 μM SD-29 plus 150 mM salt and the other plant in each group was treated with DMSO plus 150 mM salt. […] The plants were treated with the indicated treatment twice during the experiment.

The test system of experiment [3] is bean plants. The experiment in a line: salt-induced stress in bean plants. The class given is in vivo. To be noted: 60 μM compound plus 250 mM NaCl, 96 hours, about 24° C. How it is done:
In the examples described herein, the test compounds (e.g., SD-29 or analogs thereof) were dissolved in dimethyl sulfoxide (DMSO) to provide a 20 mM concentration. Micromolar concentrations were then prepared as needed by addition to the water incubation media. Unless stated otherwise, the experimental plants were incubated with the roots immersed in the water containing the compound. The control plants received only DMSO in the same amount as that of the compound. Salt-induced stress was evaluated with bean plants at room temperature (about 24° C.) for 96 hours. All plants received sufficient incubation media to last the seven days. Plant A received 60 μM SD-29 plus 250 mM NaCl and plant B received 250 mM NaCl in the incubation medium.

The subject of experiment [4] is rice leaves. The experiment is described as follows: uptake of salts from the incubation medium by rice leaves. The format is in vivo. The settings on record: 60 μM compound, 250 mM NaCl, vs non-treated leaves. How it is done: The effect of SD-29 on modulating salt-induced stress was evaluated with rice detached leaves at room temperature (about 24° C.) for seven days in a water incubation medium. All plants received sufficient incubation medium to last the seven days. Plant A (left most) received 250 mM NaCl plus DMSO, Plant B (right of Plant A) received 60 μM SD-29 and 250 mM NaCl, and plant D received 60 μM SD-29 in the incubation medium. The incubation medium of Plant C was untreated. To examine whether the salt stress resistance comes from the differential uptake of sodium ions due to the drug treatment, the uptake of salts from the incubation medium was assayed (leaves from FIG. 5). […] The base point is indicated with 250 mM of salt line.

Experiment [5] deals with Arabidopsis plants. The experiment is described as follows: drought-induced stress (sorbitol) in Arabidopsis plants. The format is in vivo, Arabidopsis thaliana. The settings on record: 150 mM sorbitol plus 60 μM compound, about three weeks, room temperature. How it is done:
In the examples described herein, the test compounds (e.g., SD-29 or analogs thereof) were dissolved in dimethyl sulfoxide (DMSO) to provide a 20 mM concentration. Micromolar concentrations were then prepared as needed by addition to the water incubation media. Unless stated otherwise, the experimental plants were incubated with the roots immersed in the water containing the compound. The control plants received only DMSO in the same amount as that of the compound. The effect of SD-29 on modulating drought-induced stress was evaluated with Arabidopsis plants for about three weeks at room temperature. Sorbitol was used to imitate drought conditions. All plants received sufficient incubation media to last the seven days. Plant A was treated with DMSO (in a volume equal to the volume of SD-29 used for Plants B and C), plant B was treated with 150 mM sorbitol plus 60 μM SD-29, plant C was treated with 60 μM SD-29, and plant D was treated with 150 mM sorbitol in the incubation medium.

The subject of experiment [6] is RACK1A:GFP. The experiment is described as follows: RACK1A:GFP expression in transformed Arabidopsis plants. The class given is in vivo, Arabidopsis thaliana. The settings on record: 60 μM compound with 250 mM salt for 6 hours. As for the experimental part:
Arabidopsis plants transformed with a RAC[…]:GFP construct were analyzed to determine the effect of SD-29 on expression of RAC[…]. The experimental plant was treated with 60 μM SD-29 with 250 mM salt for 6 hours. Controls were treated with and without salt. […] It is quite possible that downregulation of RAC[…] expression by SD-29 may be the cellular mechanism that allow the plants to withstand salt stress.

For experiment [7], the system named is salt glands (trichome) on Arabidopsis leaves. The experiment in a line: sodium green dye staining of Arabidopsis leaves (sodium uptake). The class given is in vivo, Arabidopsis thaliana. The settings on record: 1 week old plants, 100 mM salt, 60 μM compound, three hours. As for the experimental part: 1 week old Arabidopsis plants were treated with and without 100 mM salt, as well as with and without the presence of 60 μM SD-29, in incubation medium for three hours. The leaves were stained with sodium green dye (5 μM) according to the manufacturer's protocol (Invitrogen, Calif.) and analyzed by fluorescent microscopy to determine if the plants take up sodium from the incubation medium. The dye fluoresces in the presence of sodium ion.

For experiment [8], the system named is Arabidopsis protoplasts. The experiment is described as follows: H2O2-induced reactive oxygen species in Arabidopsis protoplasts (H2DCF staining). To be noted: H2O2 for 2 hours, 60 μM compound, H2DCF dye. The format is cell-based, Arabidopsis thaliana. As for the experimental part: In this example, to examine whether SD-29 can prevent generation of reactive oxygen species (ROS) under stress, the effect of SD-29 on H2O2 treated Arabidopsis protoplasts was evaluated. Protoplasts were treated with H2O2 for 2 hours with and without 60 μM SD-29. An untreated control was also evaluated. The protoplasts were stained with reactive oxygen species visualization dye H2DCF that fluoresces in the presence of ROS and the treated protoplasts were evaluated using fluorescent microscopy.

The test system of experiment [9] is Arabidopsis leaves. The experiment in a line: H2O2 accumulation in Arabidopsis leaves (DAB staining). The class given is in vivo, Arabidopsis thaliana. To be noted: 5 μM H2O2 and DAB overnight, vs DMSO only. How it is done: Arabidopsis leaves were treated with 5 μM H2O2 and 3,3′-diaminobenzidene (DAB) with and without SD-29 overnight. A control included DMSO only (included in the same volume as SD-29). The brown spots indicate sites of accumulation of H2O2.

Experiment [10] deals with MnSOD. The experiment in a line: native gel assay of Mn-SOD activity in rice during salt stress. The class given is in vivo. The settings on record: salt stress conditions, NaCN in gel activity buffer.

RACK1A, sequence (O24456 whole entry): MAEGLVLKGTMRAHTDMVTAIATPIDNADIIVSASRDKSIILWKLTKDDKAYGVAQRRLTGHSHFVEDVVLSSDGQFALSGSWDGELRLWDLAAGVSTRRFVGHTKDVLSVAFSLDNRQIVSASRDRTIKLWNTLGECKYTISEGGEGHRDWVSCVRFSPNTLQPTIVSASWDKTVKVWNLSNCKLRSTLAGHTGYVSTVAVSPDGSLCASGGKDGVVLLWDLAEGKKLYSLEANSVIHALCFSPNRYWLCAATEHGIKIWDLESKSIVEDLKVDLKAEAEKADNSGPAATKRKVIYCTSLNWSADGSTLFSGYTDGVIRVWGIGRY

In experiment [1] (data not shown), `Nn1c(S)nnc1-c1ccc(F)cc1` [SD-29] gave an IC50 of 12.5 µM. Further, in experiment [1] (in-vitro assay), the “tyrosine phosphorylation (Y248) based homodimerization of RACK1A proteins” value is “prevent tyrosine phosphorylation (Y248) based homodimerization of RACK1A proteins”. Further, the “salt stress induced chlorosis of Arabidopsis plants” value in experiment [2] is listed as “effective to allow the Arabidopsis plants to withstand the salt stress induced chlorosis”. Moreover, in experiment [3], the “bean plant condition in high salt” value is given as “thrived (did not wilt) in the high salt conditions”. Also, the “sodium ions remaining in the incubation medium” value in [4] was “more sodium ions remained in the incubation medium”. The “plant performance under drought-imitating sorbitol” value in experiment [5] is reported as “performed much better than the plant treated with sorbitol alone”. The “RACK1A:GFP expression” value in [6] is listed as “down regulation of RACK1A:GFP expression”. Moreover, in experiment [7], the “salt uptake through the salt glands (sodium green fluorescence)” value was “prevents salt uptake through the salt glands (trichome)”. Also, in [8], the “accumulation of H2O2-induced reactive oxygen species in protoplasts” value is given as “prevented accumulation of H2O2-induced reactive oxygen species”. The “H2O2 accumulation in leaves” value in experiment [9] was “prevents H2O2 accumulation in the leaves”. Besides, the “MnSOD activity in rice” value in experiment [10] is on record as “upregulates MnSOD activity”.

As a reminder, the IC50 is the midpoint of a concentration-inhibition curve. Low values mean greater potency, high ones weaker potency.
